# Measurements reported in ChEMBL document CHEMBL6109137, “Design, Synthesis, Evaluation, and SAR of 5-Phenylisoindoline Derivatives, a Potent Class of Small-Molecule Inhibitors Targeting the Programmed Cell Death-1/Programmed Cell Death-Ligand 1 (PD-1/PD-L1) Interaction” (J Med Chem, 2025).
# Calls of active or inactive are those of the source. The rule behind the calls is not given here.
# Columns and labels:
# [1] = biological target: Programmed cell death protein 1/Programmed cell death 1 ligand 1 (Homo sapiens, UniProt Q9NZQ7); test: Inhibition of interaction of PD-1/PD-L1 (unknown origin) by HTRF analysis; type: protein-complex assay
# Programmed cell death protein 1/Programmed cell death 1 ligand 1, sequence (Q15116 whole entry): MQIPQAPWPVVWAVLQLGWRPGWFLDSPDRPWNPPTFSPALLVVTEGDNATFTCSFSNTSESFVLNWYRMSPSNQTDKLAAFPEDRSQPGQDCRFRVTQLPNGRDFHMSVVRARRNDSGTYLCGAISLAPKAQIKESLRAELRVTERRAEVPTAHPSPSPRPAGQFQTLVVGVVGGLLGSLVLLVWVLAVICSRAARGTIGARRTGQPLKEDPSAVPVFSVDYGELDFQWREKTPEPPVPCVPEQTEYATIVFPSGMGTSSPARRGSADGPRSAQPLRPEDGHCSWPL
# Programmed cell death protein 1/Programmed cell death 1 ligand 1, sequence (Q9NZQ7 whole entry): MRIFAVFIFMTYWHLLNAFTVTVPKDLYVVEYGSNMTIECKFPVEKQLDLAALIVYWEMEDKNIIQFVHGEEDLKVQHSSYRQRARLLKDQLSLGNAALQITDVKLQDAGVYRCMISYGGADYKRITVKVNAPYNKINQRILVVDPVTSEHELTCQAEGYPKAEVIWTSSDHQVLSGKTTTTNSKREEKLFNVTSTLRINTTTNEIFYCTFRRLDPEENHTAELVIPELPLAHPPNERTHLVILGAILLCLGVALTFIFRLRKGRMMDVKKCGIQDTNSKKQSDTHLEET
# [2] = biological target: T1, Programmed cell death protein 1/Programmed cell death 1 ligand 1 (Homo sapiens) (UniProt Q15116+Q9NZQ7); test: Inhibition of PD-1/PD-L1 (unknown origin) interaction in human PBMC cells assessed as increase in IFN-gamma level at 100 to 1000 nM pretreated with anti-CD3/CD28 and PD-L1 followed by compound addition measured after 72 hrs by ELISA; type: cell-based; details: dose 100-1000 nM
# [3] = Cytotoxicity against human PBMC cells assessed as inhibition of cell viability at 50 to 5000 nM by CCK8 assay; type: toxicity, cell-based; details: 5 µM, dose 50-5000 nM
# [4] = Cytotoxicity against human PBMC cells assessed as inhibition of cell viability by CCK8 assay; type: toxicity, cell-based
# [5] = biological target: T1, Programmed cell death protein 1/Programmed cell death 1 ligand 1 (Homo sapiens); test: Inhibition of PD-1/PD-L1 (unknown origin) interaction in human PBMC cells assessed as increase in IFN-gamma level at 100 nM pretreated with anti-CD3/CD28 and PD-L1 followed by compound addition measured after 72 hrs by ELISA; type: cell-based
Structure (SMILES),IC50 [1] [nM],other results
Cc1c(-c2ccccc2)cccc1-c1ccc2c(c1)CN(C(=O)[C@@H](N)CC(=O)O)C2,142,–
Cc1c(-c2ccccc2)cccc1-c1ccc2c(c1)CN(C(=O)CN)C2,293,–
N#Cc1c(-c2ccccc2)cccc1-c1ccc2c(c1)C(=O)NC2=O,> 10000,–
Fc1c(-c2ccccc2)cccc1-c1ccc2c(c1)CNC2,95.6,–
Cc1c(-c2ccccc2)cccc1-c1ccc2c(c1)CN(C(=O)[C@H](C)N)C2,30.4,–
N#Cc1c(-c2ccccc2)cccc1-c1ccc2c(c1)CN(C(=O)[C@@H]1CCCCN1)C2,64.2,–
c1ccc(-c2cccc(-c3ccc4c(c3)CNC4)c2)cc1,> 10000,–
Cc1c(-c2ccccc2)cccc1-c1ccc2c(c1)CN(C(=O)[C@H]1NCCC1O)C2 (stereo not given in full),24.2,–
N#Cc1c(-c2ccccc2)cccc1-c1ccc2c(c1)C(=O)NC2,1520,–
Cl.Clc1c(-c2ccc3c(c2)CNC3)cccc1-c1ccc2c(c1)OCCO2,5.9,inhibition [2]: inactive; Activity [3]: Toxic
Cc1c(-c2ccc3c(c2)CNC3)cccc1-c1ccc2c(c1)OCCO2,35.8,–
Cc1c(-c2ccccc2)cccc1-c1ccc2c(c1)CN(C(=O)[C@@H](N)CO)C2,94.8,–
Oc1c(-c2ccccc2)cccc1-c1ccc2c(c1)CNC2,> 10000,–
Cc1c(-c2ccccc2)cccc1-c1ccc2c(c1)CN(C(=O)[C@@H]1CCCCN1)C2,19.3,–
N#Cc1c(-c2ccccc2)cccc1-c1ccc2c(c1)CNC2,47.6,–
Clc1c(-c2ccccc2)cccc1-c1ccc2c(c1)CNC2,9.4,IC50 [4]: > 5000 nM; inhibition [5]: Active
C[C@H](N)C(=O)N1Cc2ccc(-c3cccc(-c4ccc5c(c4)OCCO5)c3C#N)cc2C1,24.5,–
NCC(=O)N1Cc2ccc(-c3cccc(-c4ccccc4)c3Cl)cc2C1,90.3,–

Structure (SMILES),IC50 [1] [nM],other results
N#Cc1c(-c2ccccc2)cccc1-c1ccc2c(c1)CN(C(=O)[C@@H]1CCCN1)C2,85.7,–
O=C([C@@H]1CCCN1)N1Cc2ccc(-c3cccc(-c4ccccc4)c3Cl)cc2C1,17.9,–
Cc1c(-c2ccccc2)cccc1-c1ccc2c(c1)CN(C(=O)[C@@H]1CCCN1)C2,7.1,–
COc1c(-c2ccccc2)cccc1-c1ccc2c(c1)CNC2,115,–
Clc1c(-c2ccc3c(c2)CNC3)cccc1-c1ccc2nonc2c1,880,–
Cc1c(-c2ccccc2)cccc1-c1ccc2c(c1)CN(C(=O)[C@@H](N)CCCCN)C2,539,–
N#Cc1c(-c2ccccc2)cccc1-c1ccc2c(c1)CNC2=O,145,–
Cc1c(-c2ccccc2)cccc1-c1ccc2c(c1)C(=O)NC2=O,> 10000,–
O=C([C@@H]1CCCCN1)N1Cc2ccc(-c3cccc(-c4ccc5c(c4)OCCO5)c3Cl)cc2C1,26.2,–
N#Cc1c(-c2ccc3c(c2)CNC3)cccc1-c1ccc2c(c1)OCCO2,18.5,–
Cc1c(-c2ccccc2)cccc1-c1ccc2c(c1)CN(C(=O)[C@@H]1C[C@H](O)CN1)C2,84.5,–
C[C@H](N)C(=O)N1Cc2ccc(-c3cccc(-c4ccccc4)c3C#N)cc2C1,50,–
Nc1c(-c2ccccc2)cccc1-c1ccc2c(c1)CNC2,194,–
O=C([C@@H]1CCCCN1)N1Cc2ccc(-c3cccc(-c4ccccc4)c3Cl)cc2C1,11.4,–
O=C([C@@H]1CCCN1)N1Cc2ccc(-c3cccc(-c4ccc5c(c4)OCCO5)c3Cl)cc2C1,15.6,IC50 [4]: > 5000 nM
COC(=O)C[C@H](N)C(=O)N1Cc2ccc(-c3cccc(-c4ccccc4)c3C)cc2C1,416,–
C[C@H](N)C(=O)N1Cc2ccc(-c3cccc(-c4ccccc4)c3Cl)cc2C1,12.9,–
